Data on 11 molecules can be found in US20130337564A1, “Treatment of Pluripotent Cells” (Janssen Biotech, Inc., priority 2012, published 2013).

One may read the viability as a per cent measure of how many cells are alive, often set against a control.

“And” between values parts separate entries of the source, which are not always exact repeats. Identical values can stand only once.

Experiment [1] has as its system human embryonic stem cells (H9 or H1 lines). Description: Plate reader (MTS) proliferation assay. The format is cell-based. Particulars: for Average: average of replicate raw data; for % Control Value (proliferation) / activity at 10 µM: 10 μM test compound with 100 ng/ml activin A on days 1-2, MTS OD490 on day 4, vs Activin A/Wnt3a positive control, strong and moderate hits; for Raw Data: replicate wells, plate reader proliferation screen of GSK-3B inhibitors; for activity at 10 µM: Homo sapiens, Embryonic stem cell, 96 h. The protocol: Maintenance of human embryonic stem cells (H9 or H1 lines) was conducted as described in Example 1. Colonies of cells were maintained in an undifferentiated, pluripotent state with passage on average every four days. Passage was performed by exposing cell cultures to a solution of collagenase (1 mg/ml; Sigma-Aldrich) for 10 to 30 minutes at 37° C. followed by gentle scraping with a pipette tip to recover cell clusters. Clusters were allowed to sediment and washed to remove residual collagenase. Cell clusters were split at a ratio of 1:3 monolayer area for routine culture or a 1:1 ratio for immediate assay. The human embryonis stem cell lines used for these examples were maintained at passage numbers less than 50 and routinely evaluated for normal karyotypic phenotype as well as absence of mycoplasm contamination.
Cell clusters used in assay were evenly resuspended in normal culture medium and plated into MATRIGEL-coated 96-well Packard VIEWPLATES (PerkinElmer) in volumes of 100 μl/well. MEF conditioned medium supplemented with 8 ng/ml bFGF) was used for initial plating and recovery. Daily feeding was conducted by aspirating spent culture medium from each well and replacing with an equal volume of fresh medium. Plates were maintained at 37° C. in a humidified box, 5% CO2 throughout the duration of assay.
Primary screening assays were initiated by aspirating culture medium from each well followed by three washes in PBS to remove residual growth factors and serum. Test volumes of 80-100 μl per well were added back containing DMEM:F12 base medium (Invitrogen) supplemented with 0.5% FCS (HyClone) and 100 ng/ml activin A (R&D Biosystems) and 10 μM test compound. Positive control wells contained the same medium substituting 10-20 ng/ml Wnt3a (R&D Biosystems). Negative control wells contained base medium with 0.5% FCS without activin A or Wnt3a. Screening compounds were tested in triplicate. Wells were aspirated and fed again with identical solutions on day 2 of the assay. On days 3 and 4, all assay wells were aspirated and converted to DMEM:F 12 supplemented with 2% FCS and 100 ng/ml activin A with the exception of negative control wells which were maintained in DMEM:F12 base medium with 2% FCS.
On day 4 of assay, 15-20 μl of MTS (Promega) was added to each well and plates were incubated at 37° C. for 1.5 to 4 hours. Densitometric readings at OD490 were determined using a Molecular Devices spectrophotometer plate reader. Average readings for replicate sets were calculated along with standard deviation and coefficient of variation. Experimental wells were compared to the Activin A/Wnt3a positive control to calculate a percent control value as a measure of proliferation.
Strong hits are defined as greater than or equal to 120% of control values; moderate hits are defined as falling within the interval of 60-120% of control values. A significant number of compounds induce a proliferative response in this assay.

In experiment [2] the test system is cells expressing pluripotency markers derived from human embryonic stem cells. The experiment can be described thus: MTS viability (toxicity) assay of cells expressing pluripotency markers. It is filed as cell-based. More on the design: Raw data (duplicate), first replicate / Average: unit not given here. Particulars: for viability at 10 µM: Homo sapiens, Embryonic stem cell; for viability at 10 µM / % Control: viability of cells expressing pluripotency markers, relative to control. The protocol: Derivation and maintenance of cells expressing pluripotency makers was conducted as has been described in Example 2. Cells were grown in DMEM:F12 supplemented with 2% FCS (Invitrogen), 100 ng/ml Activin A, 20 ng/ml Wnt-3a, and 50 ng/ml IGF (R&D Biosystems). Cells were seeded at a density of 10,000 cells/cm^2 on Falcon polystyrene flasks and grown in monolayer culture at 37° C., 5% CO2, low oxygen. After reaching 60-70% confluence, cells were passed by washing the monolayer with PBS and incubating with TrypLE (Invitrogen) for 3-5 minutes to allow detachment and single cell dispersal.
Screening was conducted using test compounds from a proprietary library of small molecules selected for their ability to inhibit GSK-3B enzyme activity. Compounds from this library were made available as 1 mM stocks, in a 96-well plate format in 50 mM HEPES, 30% DMSO. For assay, cells expressing pluripotency markers were washed, counted, and plated in normal culture medium at a seeding density of 20,000 cells per well in 96-well clear-bottom, dark-well plates (Costar). This seeding density was previously determined to yield optimal monolayer formation in overnight culture. On the following day, culture medium was removed, cell monolayers were rinsed three times with PBS, and test compounds were added to the wells in 80 μl aliquots, each diluted into assay medium at a final assay concentration of 10 μM. On day 2 of the assay, medium was removed from each well and replaced with a fresh aliquot of test compounds diluted into assay medium. Assay medium on days 1 and 2 of culture consisted of DMEM:F12 supplemented with 0.5% FCS and 100 ng/ml Activin A. On days 3 and 4 of culture, medium was removed from each well and replaced with DMEM:F12 supplemented with 2% FCS and 100 ng/ml Activin A (no test compound). On day 4 of assay, 15 μl of MTS (Promega) was added to each well and plates were incubated at 37° C. for 1.5 to 4 hours prior to reading optical density at 490 nm on a SpectraMax (Molecular Devices) instrument. Statistical measures consisting of mean, standard deviation, and coefficient of variation were calculated for each duplicate set. Toxicity was calculated for each test well relative to a positive control (wells treated with Activin A and Wnt3a on days 1 and 2 of culture).
A larger proportion of the compounds have minimal or no measurable toxicity in this cell-based assay.
A small panel of select compounds was repeat tested over a narrow dose titration range, again using cells expressing pluripotency markers in a similar assay as described above.

[3] abbreviates: MTS viability assay raw reading, replicate 1.
Where [4] appears, read: MTS viability assay raw reading, replicate 2.
The mark [5] stands for this setting: average of duplicate MTS raw readings.

As to `O=C1NC(=O)C(c2cccc3c2sc2ccccc23)=C1c1cn(CCCO)c2ncccc12` [Compound 34, 3-Dibenzo[b,d]thien-4-yl-4-[1-(3-hydroxypropyl)-1H-pyrrolo[2,3-b]pyridin-3-yl]-1H-pyrrole-2,5-dione], the Average in experiment [1] turned out to be 0.1420; in experiment [2] (setting [5]) it was 0.687. Moreover, in experiment [2], the viability at 10 µM came out at 83.5%. Moreover, in experiment [2] (setting [3]), the “Raw data (duplicate), first replicate” value came out at 0.750. Moreover, the “Raw data (duplicate), second replicate” value in experiment [2] (setting [4]) stood at 0.624.
Take `O=C1NC(=O)C2=C1c1cn(c3ccccc13)CCOCCOCCN(Cc1ccccc1)CCn1cc2c2ccccc21` [Compound 105, 14-(Phenylmethyl)-6,7,9,10,13,14,15,16-octahydro-12H,23H-5,26:17,22-di(metheno)dibenzo[k,q]pyrrolo[3,4-n][1,4,7,10,19]dioxatriacyclohenicosine-23,25(24H)-dione]: in experiment [1], the “% Control Value (proliferation)” value stood at 183.8%; the Average amounted to 1.2038; the “Raw Data” value was 1.0968 and 1.3108. In addition, in experiment [2] (setting [3]), the “Raw data (duplicate), first replicate” value stood at 0.916. Further, the “Raw data (duplicate), second replicate” value in experiment [2] (setting [4]) was determined as 0.859. In experiment [2] (setting [5]), this molecule displayed an Average of 0.887. The “% Control” value in experiment [2] came to 124.0%.
In the case of `Cn1cc(C2=C(c3nn(CC(=O)NCCO)c4ccccc34)C(=O)NC2=O)c2cc(Cl)ccc21` [Compound 82, 2-{3-[4-(5-Chloro-1-methyl-1H-indol-3-yl)-2,5-dioxo-2,5-dihydro-1H-pyrrol-3-yl]-1H-indazol-1-yl}-N-(2-hydroxyethyl)acetamide], in experiment [1], the activity at 10 µM is 131% and the Average was 0.8929. This molecule returned a viability at 10 µM in experiment [2] of 95%. Besides, the “Raw data (duplicate), first replicate” value in experiment [2] (setting [3]) is 0.684. For the same molecule, in experiment [2] (setting [4]), the “Raw data (duplicate), second replicate” value was determined as 0.809. In addition, the Average in experiment [2] (setting [5]) came to 0.746.
As for `O=C1NC(=O)C(c2cccc3c2oc2ccccc23)=C1c1cn(CCCO)c2ncccc12` [Compound 33, 3-Dibenzo[b,d]furan-4-yl-4-[1-(3-hydroxypropyl)-1H-pyrrolo[2,3-b]pyridin-3-yl]-1H-pyrrole-2,5-dione], the Average was 0.1889 in experiment [1] and 0.428 in experiment [2] (setting [5]). In experiment [2], this molecule yielded a viability at 10 µM of 45.2%. The “Raw data (duplicate), first replicate” value in experiment [2] (setting [3]) is listed as 0.315. Also, in experiment [2] (setting [4]), the “Raw data (duplicate), second replicate” value was determined as 0.542.
In the case of `O=C1NC(=O)C(c2cn(CCCO)c3ncccc23)=C1c1cc[nH]c1` [Compound 242, 4-[1-(3-Hydroxypropyl)-1H-pyrrolo[2,3-b]pyridin-3-yl]-1H,1′H-3,3′-bipyrrole-2,5-dione], the “Average (of Raw Data)” value in experiment [1] (plate reader raw signal, mean of replicate wells, proliferation of human embryonic stem cells) was 0.1152. In experiment [2], this molecule registered a viability at 10 µM of 71%. In experiment [2] (MTS viability readout, average of duplicate raw data), the Average is on record as 0.601. The “Raw data (duplicate), first replicate” value in experiment [2] (MTS viability readout, raw value of replicate 1) was found to be 0.590. In experiment [2] (MTS viability readout, raw value of replicate 2), the “Raw data (duplicate), second replicate” value was 0.613.
Consider `O=C1NC(=O)C(c2nn(CCCO)c3ccccc23)=C1c1cn(C2CCOCC2)c2ccccc12` [Compound 78, 3-[1-(3-Hydroxypropyl)-1H-indazol-3-yl]-4-[1-(tetrahydro-2H-pyran-4-yl)-1H-indol-3-yl]-1H-pyrrole-2,5-dione], for which, in experiment [1], the activity at 10 µM is 154% and the Average came out at 1.0282. Also, the viability at 10 µM in experiment [2] was 22%. Moreover, the “Raw data (duplicate), first replicate” value in experiment [2] (setting [3]) is given as 0.300. Besides, in experiment [2] (setting [4]), the “Raw data (duplicate), second replicate” value was 0.223. The same molecule showed an Average in experiment [2] (setting [5]) of 0.261.
For the molecule `COc1ncc(C2=C(c3cn(CCCO)c4ncccc34)C(=O)NC2=O)c(OC)n1` [Compound 48, 3-[2,4-Bis(methyloxy)pyrimidin-5-yl]-4-[1-(3-hydroxypropyl)-1H-pyrrolo[2,3-b]pyridin-3-yl]-1H-pyrrole-2,5-dione], in experiment [1], the activity at 10 µM stood at 148%.
With `O=C1NC(=O)C(c2cn(CCCO)c3ncccc23)=C1c1cc2ccccc2o1` [Compound 241, 3-(1-Benzofuran-2-yl)-4-[1-(3-hydroxypropyl)-1H-pyrrolo[2,3-b]pyridin-3-yl]-1H-pyrrole-2,5-dione], the viability at 10 µM in experiment [2] amounted to 85.3%.
Turning to `Cn1ccc(C2=C(c3cn(CCCC#N)c4ncccc34)C(=O)NC2=O)n1` [Compound 94, 4-{3-[4-(1-Methyl-1H-pyrazol-3-yl)-2,5-dioxo-2,5-dihydro-1H-pyrrol-3-yl]-1H-pyrrolo[2,3-b]pyridin-1-yl}butanenitrile], in experiment [1], the activity at 10 µM came out at 146% and the Average stood at 0.9819. In experiment [2], this molecule had a viability at 10 µM of 95%. Besides, in experiment [2] (setting [3]), the “Raw data (duplicate), first replicate” value amounted to 0.810. Further, the “Raw data (duplicate), second replicate” value in experiment [2] (setting [4]) is 0.683. Further, in experiment [2] (setting [5]), the Average is listed as 0.746.
As to `O=C1NC(=O)C2=C1c1cn(c3ccccc13)CCOCCOCCN(Cc1ccncc1)CCn1cc2c2ccccc21` [Compound 139, 14-(Pyridin-4-ylmethyl)-6,7,9,10,13,14,15,16-octahydro-12H,23H-5,26:17,22-di(metheno)dibenzo[k,q]pyrrolo[3,4-n][1,4,7,10,19]dioxatriazacyclohenicosine-23,25(24H)-dione], in experiment [1], the “% Control Value (proliferation)” value was 115.5%; the Average was determined as 0.8650; the “Raw Data” value is 0.9184 and 0.8116. Moreover, the “Raw data (duplicate), first replicate” value in experiment [2] (setting [3]) stood at 0.532. The “Raw data (duplicate), second replicate” value in experiment [2] (setting [4]) amounted to 0.682. Also, in experiment [2] (setting [5]), the Average was 0.607. Further, the “% Control” value in experiment [2] amounted to 78.3%.
Consider `O=C1NC(=O)C2=C1c1cn(c3ccccc13)CCOCCOCCN(Cc1ccco1)CCn1cc2c2ccccc21` [Compound 127, 14-(Furan-2-ylmethyl)-6,7,9,10,13,14,15,16-octahydro-12H,23H-5,26:17,22-di(metheno)dibenzo[k,q]pyrrolo[3,4-n][1,4,7,10,19]dioxatriazacyclohenicosine-23,25(24H)-dione], for which, in experiment [1], the “% Control Value (proliferation)” value was 136.8% and 124.4%; the Average was 0.9229 and 1.0032; the “Raw Data” value is 0.9589 and 0.8868 and 1.0442 and 0.9622. In addition, the “Raw data (duplicate), first replicate” value in experiment [2] (setting [3]) is 0.745 and 0.744. The “Raw data (duplicate), second replicate” value in experiment [2] (setting [4]) is 0.685 and 0.737. In experiment [2] (setting [5]), the Average is 0.715 and 0.741. In addition, the “% Control” value in experiment [2] was 90.2% and 94.1%.
